Tests used:
SUMO = target: T1, SUMO (Homo sapiens, UniProt Q9UBT2); test: SUMO activity (Table I, biological activities); type: biochemical; design: key: + (less active); ++ (active); +++ (most active)
T1 sequence (Q9UBT2 1-640): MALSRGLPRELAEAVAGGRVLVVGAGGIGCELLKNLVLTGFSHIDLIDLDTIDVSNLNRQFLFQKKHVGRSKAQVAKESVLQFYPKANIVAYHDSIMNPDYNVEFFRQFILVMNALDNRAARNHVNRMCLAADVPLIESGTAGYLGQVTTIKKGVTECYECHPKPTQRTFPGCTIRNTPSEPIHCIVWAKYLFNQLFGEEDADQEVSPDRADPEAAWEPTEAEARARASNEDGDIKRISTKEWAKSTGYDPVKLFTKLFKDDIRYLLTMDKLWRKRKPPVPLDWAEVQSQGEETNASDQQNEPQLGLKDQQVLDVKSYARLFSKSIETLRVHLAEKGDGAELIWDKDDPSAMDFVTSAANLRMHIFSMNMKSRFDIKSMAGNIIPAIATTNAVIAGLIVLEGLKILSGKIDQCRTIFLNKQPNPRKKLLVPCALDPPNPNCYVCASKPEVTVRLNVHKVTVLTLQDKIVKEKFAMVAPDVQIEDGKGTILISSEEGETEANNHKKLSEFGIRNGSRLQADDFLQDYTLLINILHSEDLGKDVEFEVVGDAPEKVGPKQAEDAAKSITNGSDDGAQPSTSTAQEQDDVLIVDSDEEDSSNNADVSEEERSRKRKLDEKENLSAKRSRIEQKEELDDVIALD
T1 sequence (Q9UBE0 1-346 partner): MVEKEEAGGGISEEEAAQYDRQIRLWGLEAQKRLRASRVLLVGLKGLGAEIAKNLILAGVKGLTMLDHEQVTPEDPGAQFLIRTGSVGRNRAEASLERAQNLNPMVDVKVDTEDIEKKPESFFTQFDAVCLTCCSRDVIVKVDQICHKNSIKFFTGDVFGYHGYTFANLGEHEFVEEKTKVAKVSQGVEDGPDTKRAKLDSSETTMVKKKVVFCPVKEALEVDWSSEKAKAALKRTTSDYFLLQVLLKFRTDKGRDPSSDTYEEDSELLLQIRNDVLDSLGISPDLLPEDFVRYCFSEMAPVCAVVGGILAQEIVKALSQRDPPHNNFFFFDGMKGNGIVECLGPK

c-Myc = c-Myc activity (Table I, biological activities); design: key: + (less active); ++ (active); +++ (most active)

SUMO (SUMO)	SMILES	c-Myc (c-Myc)
+++	COC(=O)C1=C(C(=O)NC2CCN(C)C2)C2C=CC1(C(Cc1ccccc1)Nc1ccccc1)O2 (stereo not shown) [Compound 239]	+
+++	CCCCC(Nc1cc(F)cc(F)c1)C12C=CC(O1)C(C(=O)NC1CCN(C)CC1)=C2C(=O)OC (stereo not shown) [Compound 266]	+
++	COC(=O)C1=C(C(=O)OC)C2(C(Cc3ccccc3)N(C(=O)C(F)(F)F)c3ccccc3)C=CC1O2 (stereo not shown) [Compound 554]	++
++	CCOC(=O)C1=C(C(=O)NCCN2CCCC2)C2C=CC1(C(Cc1ccccc1)Nc1ccccc1)O2 (stereo not shown) [Compound 564]	+
++	COC(=O)C1=C(C(=O)NC2CCN(C(=O)Cc3ccccc3)CC2)C2C=CC1(C(Cc1ccccc1)Nc1ccccc1)O2 (stereo not shown) [Compound 387]	+
++	COC(=O)C1=C(C(=O)OC)C2(C(Cc3ccc(C)cc3)Nc3cc(F)cc(F)c3)C=CC1O2 (stereo not shown) [Compound 428]	+
+++	COC(=O)C1=C(C(=O)NC2CCN(C)CC2)C2C=CC1(C(Cc1ccccc1)Nc1cccc(Oc3ccccc3)c1)O2 (stereo not shown) [Compound 320]	++
+++	COC(=O)C1=C(C(N)=O)C2C=CC1(C(Cc1ccccc1)Nc1cccc(Oc3ccccc3)c1)O2 (stereo not shown) [Compound 319]	+
++	COC(=O)C1=C(C(=O)Nc2ccccc2)C2C=CC1(C(Cc1ccccc1)Nc1cccc(CO)c1)O2 (stereo not shown) [Compound 528]	++
+++	COC(=O)C1=C(C(=O)NC2CCN(C)C2)C2C=CC1(C(Cc1ccccc1)Nc1ccc(F)cc1)O2 (stereo not shown) [Compound 263]	++
+	COC(=O)C1=C(C(=O)Nc2ccc(N3CCN(C)CC3)c(F)c2)C2C=CC1(C(Cc1ccccc1)Nc1ccccc1)O2 (stereo not shown) [Compound 494]	+
+	O=C(C1=CC2(C(Cc3ccccc3)Nc3ccccc3)C=CC1O2)c1ccc(F)cc1 (stereo not shown) [Compound 525]	+
++	CCOC(=O)C1=C(C(F)(F)F)C2(C(Cc3ccccc3)Nc3ccccc3)C=CC1O2 (stereo not shown) [Compound 298]	+
++	COC(=O)C1=C(C(=O)OC)C2(C(Nc3ccccc3)c3ccccc3)C=CC1O2 (stereo not shown) [Compound 165]	+
+	COC(=O)C1=C(C(=O)NC2CCCCC2)C2C=CC1(C(Cc1ccccc1)Nc1ccccc1)O2 (stereo not shown) [Compound 160]	+
+++	CCOC(=O)C1=C(C(=O)Nc2cccnc2)C2C=CC1(C(Nc1ccccc1)c1ccc(CN3CCOCC3)cc1)O2 (stereo not shown) [Compound 550]	+
++	CCOC(=O)C1=C(C(=O)Nc2ccc(F)cc2)C2C=CC1(C(Nc1ccccc1)c1ccc(CN3CCOCC3)cc1)O2 (stereo not shown) [Compound 601]	+
++	COC(=O)C1=C(C(=O)Nc2ccc(F)cc2)C2C=CC1(C(Cc1ccccc1)Nc1ccccc1)O2 (stereo not shown) [Compound 166]	+
+++	CCOc1cccc(NC(Cc2ccccc2)C23C=CC(O2)C(C(=O)NC2CCN(C)C2)=C3C(=O)OC)c1 (stereo not shown) [Compound 248]	++
++	COC(=O)C1=C(C(=O)OC)C2(C(CCc3ccccc3)Nc3ccccc3)C=CC1O2 (stereo not shown) [Compound 191]	+
++	COC(=O)C1=C(C(=O)NCCN(C)C)C2(C(Cc3ccccc3)Nc3cc(F)cc(F)c3)C=CC1O2 (stereo not shown) [Compound 401]	++
+++	CCN(CC)CCNC(=O)C1=C(C(=O)OC)C2(C(Cc3cccc(F)c3)Nc3cc(F)cc(F)c3)C=CC1O2 (stereo not shown) [Compound 436]	++
+	COC(=O)C1=C(C(=O)Nc2ccc(OC)cc2)C2CCC1(C(Cc1ccccc1)Oc1ccccc1)O2 (stereo not shown) [Compound 350]	+
++	COC(=O)C1=C(C(=O)NCCNS(=O)(=O)c2ccccc2)C2C=CC1(C(Cc1ccccc1)Nc1ccccc1)O2 (stereo not shown) [Compound 394]	+
++	COC(=O)C1=C(C(=O)NC2CCN(S(C)(=O)=O)CC2)C2C=CC1(C(Cc1ccccc1)Nc1ccccc1)O2 (stereo not shown) [Compound 361]	+

SUMO (SUMO)	SMILES	c-Myc (c-Myc)
++	CNC(=O)C1=C(C(=O)OC)C2(C(Cc3ccccc3)Nc3cc(F)cc(F)c3)C=CC1O2 (stereo not shown) [Compound 208]	+
+++	COC(=O)C1=C(C(=O)Nc2ccccc2)C2C=CC1(C(Cc1ccccc1)Nc1ccccc1)O2 (stereo not shown) [Compound 300]	+
++	CCOC(=O)C1=C(C(=O)Nc2ccccc2)C2C=CC1(C(Nc1ccccc1)c1ccc(CN3CCOCC3)cc1)O2 (stereo not shown) [Compound 604]	+
++	COC(=O)C1=C(C(=O)NC2CCN(C(C)=O)CC2)C2C=CC1(C(Cc1ccccc1)Nc1ccccc1)O2 (stereo not shown) [Compound 287]	++
++	COC(=O)C1=C(C(=O)NCCN(C)C)C2C=CC1(C(Cc1ccccc1)Nc1c(F)cccc1F)O2 (stereo not shown) [Compound 431]	+
++	CCOc1cccc(NC(Cc2ccccc2)C23C=CC(O2)C(C(=O)NCc2ccncc2)=C3C(=O)OC)c1 (stereo not shown) [Compound 254]	+
++	CCOC(=O)C1=C(C(N)=O)C2C=CC1(C(Nc1ccccc1)c1ccc(CN3CCOCC3)cc1)O2 (stereo not shown) [Compound 552]	+
++	COC(=O)C1=C(C(=O)NCCN(C)C)C2C=CC1(C(Cc1ccccc1F)Nc1cc(F)cc(F)c1)O2 (stereo not shown) [Compound 455]	++
+++	COC(=O)C1=C(C(=O)Nc2ccc(OCCN(C)C)cc2)C2C=CC1(C(Cc1ccccc1)Nc1ccccc1)O2 (stereo not shown) [Compound 491]	+
+	CNCCNC(=O)C1=C(C(=O)OC)C2(C(Cc3ccccc3)Nc3ccccc3)C=CC1O2 (stereo not shown) [Compound 437]	+
++	COC(=O)C1=C(C(=O)NNc2ccccc2)C2C=CC1(C(Cc1ccccc1)Nc1cc(F)cc(Cl)c1)O2 (stereo not shown) [Compound 215]	+
++	COC(=O)C1=C(C(=O)NNc2ccc(F)c(F)c2)C2C=CC1(C(Cc1ccccc1)Nc1cc(F)cc(F)c1)O2 (stereo not shown) [Compound 314]	+
++	COC(=O)C1=C(C(=O)NNc2ccc(F)c(F)c2)C2(C(Cc3ccccc3)Nc3cc(F)cc(F)c3)C=CC1O2 (stereo not shown) [Compound 315]	+
++	COC(=O)C1=C(C(=O)OC)C2(C(Cc3ccccc3)Nc3c(F)cccc3F)C=CC1O2 (stereo not shown) [Compound 169]	+
++	COC(=O)C1=C(C(=O)NC2CCN(C)CC2)C2C=CC1(C(Cc1ccc(C(F)(F)F)cc1)Nc1ccccc1)O2 (stereo not shown) [Compound 488]	++
++	CCN(CC)CCNC(=O)C1=C(C(=O)OC)C2(C(Cc3ccccc3)Nc3c(F)cccc3F)C=CC1O2 (stereo not shown) [Compound 433]	+
+++	COC(=O)C1=C(C(=O)Nc2ccc(OC)cc2)C2C=CC1(C(Cc1ccccc1)Nc1cccc(Oc3ccccc3)c1)O2 (stereo not shown) [Compound 321]	+
++	COC(=O)C1=C(C(=O)OC)C2(C(Nc3ccccc3)C3CCC3)C=CC1O2 (stereo not shown) [Compound 184]	+
++	COC(=O)C1=C(C(=O)Nc2cccnc2)C2C=CC1(C(Cc1ccccc1)Nc1ccccc1)O2 (stereo not shown) [Compound 223]	+
+++	COC(=O)C1=C(C(N)=O)C2C=CC1(C(Cc1ccccc1)Nc1ccccc1)O2 (stereo not shown) [Compound 274]	++
++	CCN(CC)CCNC(=O)C1=C(C(=O)OC)C2(C(Cc3ccccc3)Nc3ccc(F)cc3)C=CC1O2 (stereo not shown) [Compound 375]	+
+++	CCN(CC)CCNC(=O)C1=C(C(=O)OC)C2(C(Cc3ccccc3)Nc3cc(F)cc(Cl)c3)C=CC1O2 (stereo not shown) [Compound 376]	++
++	COC(=O)C1=C(C(=O)OC)C2(C(Cc3ccccc3)Nc3cccc(F)c3)C=CC1O2 (stereo not shown) [Compound 417]	+
++	CCOC(=O)C1=C(C(=O)Nc2c(C)cccc2CC)C2C=CC1(C(Nc1ccccc1)c1ccc(CN3CCOCC3)cc1)O2 (stereo not shown) [Compound 617]	++
++	C#Cc1ccc(NC(=O)C2=C(C(=O)OCC)C3(C(Nc4ccccc4)c4ccc(CN5CCOCC5)cc4)C=CC2O3)cc1 (stereo not shown) [Compound 577]	++

Reference: patent US11578079B2, “SUMO inhibitor compounds and uses thereof” (CITY OF HOPE, priority 2018, dated 2023)
